Publication PMC6428421 (Nature cell biology, 2019)

Biological target: IRAK1 (Homo sapiens, UniProt P51617)
Assay: KINOMEScan competition kinase-binding assay

Chain of IRAK1 (P51617 whole entry): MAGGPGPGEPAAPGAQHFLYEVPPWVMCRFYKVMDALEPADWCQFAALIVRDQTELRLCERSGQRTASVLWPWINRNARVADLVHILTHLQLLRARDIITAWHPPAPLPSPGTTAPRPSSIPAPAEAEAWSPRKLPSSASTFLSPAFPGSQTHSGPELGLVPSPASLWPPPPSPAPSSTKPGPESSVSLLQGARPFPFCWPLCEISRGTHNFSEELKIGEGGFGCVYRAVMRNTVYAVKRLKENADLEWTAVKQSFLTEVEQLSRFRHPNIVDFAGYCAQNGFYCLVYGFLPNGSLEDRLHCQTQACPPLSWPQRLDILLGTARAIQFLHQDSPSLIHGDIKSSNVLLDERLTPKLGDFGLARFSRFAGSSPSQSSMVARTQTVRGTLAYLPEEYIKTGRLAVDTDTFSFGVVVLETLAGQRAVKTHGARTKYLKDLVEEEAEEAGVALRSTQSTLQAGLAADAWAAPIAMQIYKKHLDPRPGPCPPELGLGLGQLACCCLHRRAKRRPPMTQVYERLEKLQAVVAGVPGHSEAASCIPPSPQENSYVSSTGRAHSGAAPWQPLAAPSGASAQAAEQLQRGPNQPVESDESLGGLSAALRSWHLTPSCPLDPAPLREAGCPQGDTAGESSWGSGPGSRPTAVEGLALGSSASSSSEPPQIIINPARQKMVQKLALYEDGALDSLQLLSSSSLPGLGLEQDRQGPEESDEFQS

Kd: 5.8 µM
Compound: COC(=O)Nc1nc2ccc([S+]([O-])c3ccccc3)cc2[nH]1 (stereo not shown) [OXF, oxfendazole]
